These results are taken from ChEMBL document CHEMBL1921763, “Synthesis and SAR of 2-phenoxypyridines as novel c-Jun N-terminal kinase inhibitors” (Bioorg Med Chem Lett, 2011).

pIC50: −log10 of the molar value. Some results are limits rather than exact numbers.

The target of series [1] is Mitogen-activated protein kinase 10 (Homo sapiens, UniProt P53779). In words: Inhibition of JNK3 using biotinylated-ATF2 as substrate by HTRF assay. Background: In TR-FRET formats the signal depends on donor and acceptor labels being close together.
The target of series [2] is Mitogen-activated protein kinase 8 (Homo sapiens, UniProt P45983). In words: Inhibition of JNK1 using biotinylated-ATF2 as substrate by HTRF assay.
Series [3] is described as follows: Plasma clearance in Sprague-Dawley rat at 1 mg/kg, iv and 2 mg/kg, po. It is filed as ADME, organism-based.
Series [4] in a line: Oral bioavailability in Sprague-Dawley rat at 2 mg/kg. It is filed as ADME, organism-based. The settings on record: in vivo.
Series [5] can be described thus: AUC in Sprague-Dawley rat at 1 mg/kg, iv and 2 mg/kg, po. It is filed as ADME, organism-based. The note with it: plasma.
A short description of series [6]: Half life in Sprague-Dawley rat at 1 mg/kg, iv and 2 mg/kg, po. It is filed as ADME, organism-based. The note with it: in vivo.
A short description of series [7]: Drug level in C57B16 mouse brain at 10 mg/kg, ip after 2 hrs. It is filed as ADME, organism-based. Also on record: dose 10 mg/kg, route intraperitoneal. The note with it: read-out: Drug uptake.
A short description of series [8]: Plasma concentration in C57B16 mouse at 10 mg/kg, ip after 2 hrs. It is filed as ADME, organism-based. Also on record: dose 10 mg/kg, route intraperitoneal.

Sequence of Mitogen-activated protein kinase 10 (P53779 whole entry): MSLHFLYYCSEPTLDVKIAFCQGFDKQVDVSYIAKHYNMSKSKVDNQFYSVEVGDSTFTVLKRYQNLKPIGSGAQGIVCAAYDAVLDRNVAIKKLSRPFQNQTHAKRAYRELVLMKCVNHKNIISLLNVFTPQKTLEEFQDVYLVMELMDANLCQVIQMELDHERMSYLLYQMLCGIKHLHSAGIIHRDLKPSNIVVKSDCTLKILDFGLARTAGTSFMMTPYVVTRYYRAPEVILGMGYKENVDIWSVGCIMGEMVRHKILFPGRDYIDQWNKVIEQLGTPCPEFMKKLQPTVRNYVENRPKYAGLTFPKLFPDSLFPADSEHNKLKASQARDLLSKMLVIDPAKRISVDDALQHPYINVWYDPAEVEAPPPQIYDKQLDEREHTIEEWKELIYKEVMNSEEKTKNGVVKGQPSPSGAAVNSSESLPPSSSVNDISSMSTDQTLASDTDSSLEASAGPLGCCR
Sequence of Mitogen-activated protein kinase 8 (P45983 whole entry): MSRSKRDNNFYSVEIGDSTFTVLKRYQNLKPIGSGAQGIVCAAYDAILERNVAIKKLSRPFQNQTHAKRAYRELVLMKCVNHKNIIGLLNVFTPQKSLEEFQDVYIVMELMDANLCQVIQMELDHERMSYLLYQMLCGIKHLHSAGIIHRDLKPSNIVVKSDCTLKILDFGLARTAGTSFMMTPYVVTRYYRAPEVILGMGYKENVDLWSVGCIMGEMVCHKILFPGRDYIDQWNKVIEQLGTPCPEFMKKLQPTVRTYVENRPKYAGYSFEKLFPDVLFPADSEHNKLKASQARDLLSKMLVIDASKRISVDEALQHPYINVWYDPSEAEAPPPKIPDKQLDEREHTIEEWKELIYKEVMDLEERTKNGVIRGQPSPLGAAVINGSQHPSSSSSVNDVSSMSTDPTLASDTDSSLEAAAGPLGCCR

In the case of `NC(=O)c1ccccc1Nc1cc(Oc2ccc(Cl)c(Cl)c2)ncc1C(F)(F)F`, the values for the pIC50 in series [1] and in series [2] were 7.00 and 6.17, respectively.

Take `NC(=O)c1ccccc1Nc1ccnc(Oc2ccccc2)c1`: the pIC50 in series [1] is 6.28; in series [2], 6.48.

In series [3], `NC(=O)c1ccccc1Nc1ccnc(Oc2ccc(N3CCNCC3)cc2)c1` returned a clearance of 38 mL/min/kg. The pIC50 in series [1] was 7.15; in series [2], 6.51. For the same molecule, in series [4], the bioavailability was 14%. The same molecule showed an AUC in series [5] of 0.3 µM·h. The half-life in series [6] was 90 min.

Take `COc1ccc(Oc2cc(Nc3ccccc3C(N)=O)c(F)cn2)cc1`: the pIC50 in series [1] was 7.32; in series [2], 7.59.

Molecule `COc1ccc(Oc2cc(Nc3ccccc3C(N)=O)c(Cl)cn2)cc1` came in with a clearance in series [3] of 13 mL/min/kg. Further, the results for the pIC50 in series [1] and in series [2] were 7.82 and 8.10, respectively. Moreover, the bioavailability in series [4] came to 90%. The molecule further had an AUC in series [5] of 6.3 µM·h. Besides, the concentration at 2 h was determined as 1800 nM in series [7] and 2.4 µM in series [8]. Also, the half-life in series [6] was 60 min.

On to `COc1ccc(Oc2cc(Nc3ccccc3C(N)=O)c(C(F)(F)F)cn2)cc1`, for which the clearance in series [3] amounted to 3 mL/min/kg. Further, the pIC50 is 7.43 in series [1] and 7.57 in series [2]. In series [4], this molecule came in with a bioavailability of 79%. The molecule also showed an AUC in series [5] of 20.1 µM·h. In addition, the concentration at 2 h amounted to 5200 nM in series [7] and 10 µM in series [8]. Moreover, the half-life in series [6] was 60 min.

With `COc1cccc(Oc2cc(Nc3ccccc3C(N)=O)c(C(F)(F)F)cn2)c1`, the pIC50 in series [1] is 7.15; in series [2], 7.42.

Turning to `COc1ccccc1Oc1cc(Nc2ccccc2C(N)=O)c(C(F)(F)F)cn1`, the pIC50 was 5.46 in series [1] and 5.49 in series [2].

`NC(=O)c1ccccc1Nc1cc(Oc2ccc(OC(F)(F)F)cc2)ncc1C(F)(F)F`: the pIC50 in series [1] and in series [2] was 7.46 throughout.

As to `CCOc1ccc(Oc2cc(Nc3ccccc3C(N)=O)c(C(F)(F)F)cn2)cc1`, the pIC50 in series [1] was 6.96; in series [2], 7.46.

`CCCOc1ccc(Oc2cc(Nc3ccccc3C(N)=O)c(C(F)(F)F)cn2)cc1`: the pIC50 in series [1] was 6.85; in series [2], 7.00.

Regarding `CC(C)(C)Oc1ccc(Oc2cc(Nc3ccccc3C(N)=O)c(C(F)(F)F)cn2)cc1`, the pIC50 is 7.57 in series [1] and 7.66 in series [2].

As for `NC(=O)c1ccccc1Nc1cc(Oc2ccc(F)cc2)ncc1C(F)(F)F`, the pIC50 was 6.70 in series [1] and 7.00 in series [2].

For `NC(=O)c1ccccc1Nc1cc(Oc2ccc(Br)cc2)ncc1C(F)(F)F`, the pIC50 was 6.42 in series [1] and 6.32 in series [2].

As to `NC(=O)c1ccccc1Nc1cc(Oc2cccc(Cl)c2)ncc1C(F)(F)F`, in series [1], the pIC50 is 6.70.

Turning to `COc1ccc(Oc2cc(Nc3ccccc3C(N)=O)c(C(F)(F)F)cn2)c(Cl)c1`, the negative-log IC50 (pIC50) in series [1] was 7.00; in series [2], 6.13.

On to `NC(=O)c1ccccc1Nc1cc(Oc2cccc3ccccc23)ncc1C(F)(F)F`, for which the pIC50 is 6.00 in series [1] and 6.19 in series [2].

`NC(=O)c1ccccc1Nc1cc(Oc2ccc3ccccc3c2)ncc1C(F)(F)F`: the pIC50 in series [1] is 6.49.

As for `NC(=O)c1ccccc1Nc1cc(Oc2ccc3c(c2)OCO3)ncc1C(F)(F)F`, the pIC50 in series [1] was 7.32; in series [2], 7.36.

Molecule `NC(=O)c1ccccc1Nc1cc(Oc2ccc(-n3cncn3)cc2)ncc1C(F)(F)F` yielded a clearance in series [3] of 6 mL/min/kg. The molecule also had a pIC50 in series [1] of 7.10. The bioavailability in series [4] stood at 73%. This molecule also showed an AUC in series [5] of 9.1 µM·h. For the same molecule, the concentration at 2 h turned out to be 2500 nM in series [7] and 15.7 µM in series [8]. Further, the half-life in series [6] was 60 min.

Turning to `NC(=O)c1ccccc1Nc1cc(Oc2ccc(N3CCNCC3)cc2)ncc1C(F)(F)F`, the pIC50 in series [1] was 7.47.

For the molecule `NC(=O)c1ccccc1Nc1cc(Oc2ccc(-c3cccnc3)cc2)ncc1C(F)(F)F`, the pIC50 in series [1] was 7.14; in series [2], 7.28.

On to `COc1ccc(Oc2cc(Nc3cccc(Cl)c3C(N)=O)c(C(F)(F)F)cn2)cc1`, for which the pIC50 in series [1] was 5.66.

Molecule `COc1ccc(Oc2cc(Nc3cccc(OC)c3C(N)=O)c(C(F)(F)F)cn2)cc1` had a pIC50 in series [1] of 5.66.

In series [1], `COc1ccc(Oc2cc(Nc3ccc(F)cc3C(N)=O)c(C(F)(F)F)cn2)cc1` had a pIC50 of 7.35.

In series [1], `COc1ccc(Oc2cc(Nc3ccc(Cl)cc3C(N)=O)c(C(F)(F)F)cn2)cc1` showed a pIC50 of 7.52. The pIC50 values of the last two molecules are within 0.2 log units of each other.

The molecule `COc1ccc(Oc2cc(Nc3cc(F)ccc3C(N)=O)c(C(F)(F)F)cn2)cc1` showed a pIC50 in series [1] of 7.31.

As to `COc1ccc(Oc2cc(Nc3cc(Cl)ccc3C(N)=O)c(C(F)(F)F)cn2)cc1`, the pIC50 in series [1] is 7.11.

Consider `COc1ccc(Oc2cc(Nc3cc(OC)ccc3C(N)=O)c(C(F)(F)F)cn2)cc1`, for which the pIC50 in series [1] was 7.77.

As for `COc1ccc(Oc2cc(Nc3c(F)cccc3C(N)=O)c(C(F)(F)F)cn2)cc1`, in series [1], the pIC50 is 7.22. Compared with the last molecule, the pIC50 is 0.55 log units lower.

With `COc1ccc(Oc2cc(Nc3c(Cl)cccc3C(N)=O)c(C(F)(F)F)cn2)cc1`, in series [1], the pIC50 is 6.80. This pIC50 is 0.42 log units lower than that of the molecule before.

In series [2], `COc1ccc(Oc2cc(N(C)c3ccccc3C(N)=O)c(Cl)cn2)cc1` showed a pIC50 below 4.70.

`CNC(=O)c1ccccc1Nc1cc(Oc2ccc(OC)cc2)ncc1Cl`: the pIC50 in series [1] was 6.77; in series [2], 6.03.

With `COc1ccc(Oc2cc(Nc3ccccc3-c3nnc[nH]3)c(Cl)cn2)cc1`, the negative logarithm of the IC50 (pIC50) is 6.85 in series [1] and 6.92 in series [2].

Regarding `COc1ccc(Oc2ncc(Cl)c(Nc3ccccc3C(N)=O)n2)cc1`, in series [3], the clearance was found to be 22 mL/min/kg. The pIC50 in series [1] was 8.15; in series [2] it was 8.40. In series [4], this molecule showed a bioavailability of 25%. The AUC in series [5] worked out at 1 µM·h. In series [6], this molecule had a half-life of 30 min.

The term pIC50 denotes the negative decadic logarithm of the IC50, by convention in mol/L. Low readings indicate a large IC50, high ones a small IC50. By bioavailability is commonly meant dose-corrected exposure relative to a reference, in per cent. The term AUC denotes the area under the concentration-time curve, a measure of exposure. A low value points to low exposure. As usually defined, the half-life is the time needed for the level to fall by half in the phase considered. The low end stands for rapid decline, the high end for slow decline.
